From patent US10745393B2, “Small molecular probes, processes and use thereof” (JAWAHARLAL NEHRU CENTRE FOR ADVANCED SCIENTIFIC RESEARCH, priority 2014, dated 2020)
Entries after “also recorded” stand apart in the source; their conditions may differ.

Tests used:
(AT)20 [1] = experiment: Fluorescence response / quantum yield of probes with dsDNA (AT)20; format: binding
(D2)mix [2] = experiment: Fluorescence response of probes with dsDNA (D2)mix; format: binding
[3] = tested on: ssDNA oligonucleotides (dA10, dT10, dG10 and dC10); experiment: Fluorescence emission in presence of ssDNA oligonucleotides; format: binding; settings: probe 10 μM, Tris-HCl buffer
calf-thymus DNA (ct-DNA) = experiment: Fluorescence response in presence of calf-thymus DNA; format: binding; settings: TC 10 μM, ct-DNA 200 μg/mL
Source text: Furthermore, the fluorescence response of TC in presence of calf-thymus DNA (ct-DNA) is also studied.

(AT)20 [4] = experiment: Thermal denaturation (UV-melting) of dsDNA with probe TC; format: binding
(GC)10 = experiment: as above; format: binding
(D2)mix [5] = experiment: as above; format: binding
(D1)mix = experiment: Agarose gel electrophoresis staining of dsDNA band; format: binding; settings: 3% agarose gel, about 0.6 μg dsDNA, UV-illumination
(D2)mix [6] = experiment: Agarose gel electrophoresis staining of dsDNA band; format: binding; settings: 3% agarose gel, about 0.6 μg dsDNA, UV-illumination
HepG2 cells = experiment: Confocal fluorescence staining of mammalian cells at low probe concentration; format: cell-based, human; settings: (FIG. 44 legend 2 μM)
Aβ42 aggregates = Aβ42 aggregates (Homo sapiens, UniProt P05067); experiment: Absorption / fluorescence response with Aβ42 fibrillar aggregates; format: binding
[7] = increasing concentrations of TC (1 μM to 20 μM), FIG. 10

Chain of Aβ42 aggregates (P05067 672-713 limits assumed): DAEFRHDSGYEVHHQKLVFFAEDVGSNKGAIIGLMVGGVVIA

Compound: CCN(CC)c1ccc2cc(/C=C/c3sc4ccccc4[n+]3C)c(=O)oc2c1 [TC, (E)-3-(2-(N-methyl-benzo[d]thiazol-2-yl)vinyl)-7-(diethylamino)-2H-chromen-2-one]
- fluorescence enhancement in presence of (AT)20 ((AT)20 [1]; TC 10 μM, DNA 0 to 12 μM): ~16 fold
- ΦF with (AT)20 ((AT)20 [1]; Tris-HCl buffer (100 mM, pH 7.4)): 0.36
- comparative fluorescence response in presence of (AT)20 ((AT)20 [1]; dye 10 μM, Tris-HCl buffer): excellent fluorescence marker
- probe concentration at which fluorescence reaches saturation ((AT)20 [1]; fixed dsDNA 12 μM): 18 to 22 µM
- fluorescence enhancement in presence of (AT)20 ((AT)20 [1]; [7]): ~16 fold
- fluorescence enhancement in presence of (D2)mix ((D2)mix [2]; TC 10 μM, DNA 0 to 12 μM): ~1.5 fold
- fluorescence enhancement in presence of (D2)mix ((D2)mix [2]; [7]): ~1.5 fold
- emission behaviour in presence of ssDNA [3]: do not show significant changes in the emission behaviour
- fluorescence response in presence of ct-DNA (calf-thymus DNA (ct-DNA)): strong fluorescence enhancement
- Tm(DNA + TC) ((AT)20 [4]): 49.7 °C
- Tm(DNA + TC) ((GC)10): 60.3 °C
- Tm(DNA + TC) ((D2)mix [5]): 73.5 °C
- ΔTm ((D2)mix [5]; TC bound vs unbound): 1.6 °C
- gel staining of (D1)mix band ((D1)mix): strong fluorescence intensity
- gel staining of (D2)mix band ((D2)mix [6]): strong fluorescence intensity
- fluorescence / uptake in HepG2 cells (HepG2 cells): does not show any detectable fluorescence; also recorded: No detectable uptake
- absorption maximum TC/fibril (Aβ42 aggregates; Experiment): 595 nm
- quantum yield upon binding with Aβ42 aggregates (Aβ42 aggregates; TC 2 μM): 40%
- persistence of fluorescence of stained Aβ42 aggregates (Aβ42 aggregates; aging): retain red fluorescence even after 50 days of aging
- emission maximum in presence of Aβ42 aggregates (Aβ42 aggregates; probe 2 μM): 654 nm
- fluorescence enhancement in presence of Aβ42 aggregates (Aβ42 aggregates; probe 2 μM, PBS buffer): ~30 fold
